In patent US10100039B2, “Allisartan isoproxil polymorph, its preparation method and pharmaceutical” (SHENZHEN SALUBRIS PHARMACEUTICALS CO., LTD, priority 2014, dated 2018):
Values belong to the compound of their own block, whether it stands above or below them.

What was measured:
Format in all cases: physicochemical
[1] = Observation of electrostatic phenomenon of the crystal; details: compared with the crystal disclosed
Experimental: Added 33 ml of isopropanol and 66 ml of n-heptane in the remainder (allisartan isoproxil crude), heated to 76° C. and stirred for 2 h, then cooled to 60° C. and stirred for 1 h. Cooled the system slowly to 0° C., continued to stir for 3 h. Filtered, and washed the filter cake with n-heptane.

[2] = Repose angle by fixed funnel method (flowability)
Excerpt: Repeated the method of patent CN200710094131.0 to obtain fine loose allisartan isoproxil powder (referred to as literature crystal), measured the response angle by fixed funnel method.

[3] = Bulk density by cylinder knocking method
[4] = Stability study of influence factors (high temperature, high humidity, light); details: for Stability under influence factors (conclusion in words): photostability, high humidity and high temperature study
Experimental: Stability study on the mentioned polymorph in Example 1 was performed in high temperature, high humidity and light conditions to study the influence factors.

[5] = high humidity test 25° C., RH 92.5%, day 0
[6] = high humidity test 25° C., RH 92.5%, day 5
[7] = high humidity test 25° C., RH 92.5%, day 10
[8] = high temperature test 60° C., day 0
[9] = high temperature test 60° C., day 5
[10] = high temperature test 60° C., day 10
[11] = photostability test 4500lx ± 500lx, day 0
[12] = photostability test 4500lx ± 500lx, day 5
[13] = photostability test 4500lx ± 500lx, day 10

Structure (SMILES): CCCCc1nc(Cl)c(C(=O)OCOC(=O)OC(C)C)n1Cc1ccc(-c2ccccc2-c2nnn[nH]2)cc1 [Example 1, 2-butyl-4-chloro-1-[2′-(1H-tetrazol-5-yl)-1, 1′-biphenyl-methyl]-imidazole-5-carboxylic acid, 1-[(isopropoxy)-carbonyloxy]methyl ester]
Electrostatic phenomenon [1]: does not have obvious electrostatic phenomenon
Repose angle [2]: 34-36 °
Bulk density [3]: 0.75 g/mL
Sum of impurities [4, 5]: 0.39%
Weight gained [4, 5]: 0%
Sum of impurities [4, 6]: 0.37%
Weight gained [4, 6]: 0%
Sum of impurities [4, 7]: 0.38%
Weight gained [4, 7]: 0%
Sum of impurities [4, 8]: 0.39%
Weight gained [4, 8]: 0%
Sum of impurities [4, 9]: 0.39%
Weight gained [4, 9]: 0%
Sum of impurities [4, 10]: 0.39%
Weight gained [4, 10]: 0%
Sum of impurities [4, 11]: 0.39%
Weight gained [4, 11]: 0%
Sum of impurities [4, 12]: 0.37%
Weight gained [4, 12]: 0%
Sum of impurities [4, 13]: 0.38%
Weight gained [4, 13]: 0%
Stability under influence factors (conclusion in words) [4]: remained stable

Structure (SMILES): CCCCc1nc(Cl)c(C(=O)OCOC(=O)OC(C)C)n1Cc1ccc(-c2ccccc2-c2nnn[nH]2)cc1 [Example 3, 2-butyl-4-chloro-1-[2′-(1H-tetrazol-5-yl)-1, 1′-biphenyl-methyl]-imidazole-5-carboxylic acid, 1-[(isopropoxy)-carbonyloxy]methyl ester]
Repose angle [2]: 33-35 °
Bulk density [3]: 0.77 g/mL
Stability under influence factors (conclusion in words) [4]: same result with that of Example 1

Structure (SMILES): CCCCc1nc(Cl)c(C(=O)OCOC(=O)OC(C)C)n1Cc1ccc(-c2ccccc2-c2nnn[nH]2)cc1 [Literature crystal, 2-butyl-4-chloro-1-[2′-(1H-tetrazol-5-yl)-1, 1′-biphenyl-methyl]-imidazole-5-carboxylic acid, 1-[(isopropoxy)-carbonyloxy]methyl ester, reference compound]
Repose angle [2]: 48-53 °
Bulk density [3]: 0.51 g/mL

Now from value to compound:

Repose angle [2]: 35-37 °
Bulk density [3]: 0.73 g/mL
Stability under influence factors (conclusion in words) [4]: same result with that of Example 1
Structure (SMILES): CCCCc1nc(Cl)c(C(=O)OCOC(=O)OC(C)C)n1Cc1ccc(-c2ccccc2-c2nnn[nH]2)cc1 [Example 2, 2-butyl-4-chloro-1-[2′-(1H-tetrazol-5-yl)-1, 1′-biphenyl-methyl]-imidazole-5-carboxylic acid, 1-[(isopropoxy)-carbonyloxy]methyl ester]

Repose angle [2]: 35-38 °
Bulk density [3]: 0.77 g/mL
Stability under influence factors (conclusion in words) [4]: same result with that of Example 1
Structure (SMILES): CCCCc1nc(Cl)c(C(=O)OCOC(=O)OC(C)C)n1Cc1ccc(-c2ccccc2-c2nnn[nH]2)cc1 [Example 4, 2-butyl-4-chloro-1-[2′-(1H-tetrazol-5-yl)-1, 1′-biphenyl-methyl]-imidazole-5-carboxylic acid, 1-[(isopropoxy)-carbonyloxy]methyl ester]
